Experimental findings from paper PMC3394770, “Ipomoelin, a Jacalin-Related Lectin with a Compact Tetrameric Association and Versatile Carbohydrate Binding Properties Regulated by Its N Terminus” (PLoS ONE, 2012) are described below.

In one data set the target is T1, IPO (Ipomoelin) (Ipomoea batatas, UniProt P93193).
T1 construct: full length (residues 1-154), His-tagged, expressed in E. coli BL21(DE3) from pTZ18UH-IPO
T1 sequence (P93193 1-154): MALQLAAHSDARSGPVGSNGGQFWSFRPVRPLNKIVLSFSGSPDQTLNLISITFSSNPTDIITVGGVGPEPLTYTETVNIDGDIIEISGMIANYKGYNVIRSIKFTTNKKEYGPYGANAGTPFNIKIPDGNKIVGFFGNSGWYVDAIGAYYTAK
Briefly: isothermal titration calorimetry, one-site fit. Type of data set: binding. The conditions noted are these: for Kd: read-out: K A(10^3 M^-1) (converted).

The target in another data set is T2, ΔN10IPO (Ipomoea batatas, UniProt P93193).
T2 construct: gene IPO; N-terminal residues 1-10 removed, Histrap-purified, expressed in E. coli BL21(DE3) from pTZ18UH-ΔN10IPO
The data set can be described thus: isothermal titration calorimetry, one-site fit. Type of data set: binding. The conditions noted are these: 20 mM Tris-HCl, 150 mM NaCl pH 7.0, 25 °C; n fixed at 1.0; read-out: K A(10^3 M^-1) (converted). The text has this:
isothermal titration calorimetry, one-site fit on ΔN10IPO
(In general: Isothermal titration calorimetry measures the heat released or taken up as one component is titrated into another.)

Data set [1] concerns the molecule itself. Briefly: crystal structure; hanging-drop vapor diffusion at room temperature; apo IPO and co-crystals with Me-Man, Me-Glc and Me-Gal in four space groups; tetramer in the asymmetric unit or by symmetric operations; interface analysed on IPO–Me-Glc with PDBe PISA.
The mark [2] stands for this setting: 20 mM Tris-HCl, 150 mM NaCl pH 7.0, 25 °C, n fixed at 1.0.

Like-named read-outs stand apart in the source and are kept apart here.

With `OC[C@H]1OC(O)[C@H](O)[C@@H](O)[C@H]1O` (stereo partly drawn) [Gal], on IPO (Ipomoelin) (setting [2]), the KA is 0.57×10^2.
On the same count and under the same terms, to `OC[C@H]1OC(O)[C@H](O)[C@@H](O)[C@@H]1O` (stereo partly drawn) [Glc] belongs 0.32×10^2; to `OC[C@H]1OC(O)[C@@H](O)[C@@H](O)[C@@H]1O` (stereo partly drawn) [Man], 1.05×10^2.
For `CO[C@H]1O[C@H](CO)[C@H](O)[C@H](O)[C@H]1O` [Me-Gal, methyl α-D-galactopyranoside], the Kd on IPO (Ipomoelin) is 244 µM.
Take `CO[C@H]1O[C@H](CO)[C@@H](O)[C@H](O)[C@H]1O` [Me-Glc, methyl α-D-glucopyranoside]: the figures for the Kd on ΔN10IPO and on IPO (Ipomoelin) (setting [2]) were 73.5 µM and 498 µM, respectively.
For `CO[C@H]1O[C@H](CO)[C@@H](O)[C@H](O)[C@@H]1O` [Me-Man, methyl α-D-mannopyranoside], in that order: 26.4 µM and 142 µM.

B1: Ipomoelin (IPO) (natural protein, UniProt P93193 1-154, looked up)
chain: T1 sequence (P93193 1-154)
notes: Ipomoelin (IPO), Jacalin-related lectin of sweet potato (Ipomoea batatas cv. Tainung 57); gene GenBank D89823.1, protein GenBank BAA14024.1; monomer of residues 1 to 154; recombinant IPO with a His tag is 17.3 kDa as a monomer and 69.2 kDa as a tetramer; also called wildtype IPO; native IPO; source: E. coli BL21 (DE3), purified (Histrap FF)
Regarding B1, in data set [1], the stoichiometry N (in general, a count of units in the complex or per binding partner) was determined as 4.
